test system: target transcript mRNA in A549 cells; assay: Level of mRNA of target transcript in A549 cells by quantitative RT-PCR (Tables 12 and 13); format: cell-based, human; details: 0.1 nM siRNA, 24 h post-transfection
Description: A549 cells were transfected as described before with 0.1, 1.0 and 10 nM siRNA as listed in Tables 10 and 11 and the relative mRNA levels quantified 24 h post-transfection. RNA was purified from cells using Trizol® extraction as per the manufacturer's protocol (Invitrogen). cDNA was prepared by digesting approximately 200 ng purified RNA with DNAse I (Invitrogen) for 15 minutes at room temperature, followed by 15 minutes at 65° C. in the presence of 25 mM EDTA. 30 ng random primers were added and incubated for 10 minutes at 65° C., 1 minute on ice; Superscript® III polymerase (Invitrogen) was added in presence of 5 nM DTT (Invitrogen) and 1 mM deoxyribonucleotides (Invitrogen), and the reaction incubated at 25° C. for 5 minutes, followed by an hour at 50° C. cDNA was diluted 1:3 in 10 mM Tris pH 7.0, and quantitative RT-PCR carried out on an ABI Prism 7900HT (Applied Biosciences, Inc., Foster City, Calif.) using FastStart TaqMan SYBRGreen (Roche, Basel, Switzerland) or Platinum SYBR Green (Invitrogen) and 360 nM of the primers specific for gene targets and housekeeping genes HPRT and Lamin. Reduction in target mRNA levels following siRNA transfection are given in Tables 12 and 13, together with the gene specific primer sequences. Primer sequences used for the housekeeping genes HPRT and Lamin are given in SEQ ID NO: 4885-4888.

Question: For “3573 (TGGTCACCAGCAAGAACGGTGGGATTTACT; chemistry not given here) [compound 3573]”, which “mRNA knockdown of energy and metabolism gene target transcript, 0.1 nM” value (“mRNA knockdown … 0.1 nM” for short) is on record?
Answer: ++ (70-90% mRNA knockdown)

Question: “3552 (GAAGGCAACTACCGCGAGCTGCGCTGGTT; chemistry not given here) [compound 3552]” was tested. Which “mRNA knockdown … 0.1 nM” value did it give?
Answer: + (50-70% mRNA knockdown)

Question: Which “mRNA knockdown … 0.1 nM” value does the source give for “3562 (TGCGGCTACGGATGTTGGGATCATTATTA; chemistry not given here) [compound 3562]” here?
Answer: ++ (70-90% mRNA knockdown)

Question: With “3572 (GGTCACCAGCAAGAACGGTGGGATTTACT; chemistry not given here) [compound 3572]” as the substance, how does the “mRNA knockdown … 0.1 nM” value read?
Answer: + (50-70% mRNA knockdown)

Question: With “3561 (GCGGCTACGGATGTTGGGATCATTATTA; chemistry not given here) [compound 3561]” as the substance, how does the “mRNA knockdown … 0.1 nM” value read?
Answer: + (50-70% mRNA knockdown)

Question: Which “mRNA knockdown … 0.1 nM” value does the source give for “1688 (CCAACAGGATCTTCGGCCCCATCTG; chemistry not given here) [compound 1688]” here?
Answer: + (50-70% mRNA knockdown)

Question: With “3534 (GGGTAGGAGCCCTACACTAGG; chemistry not given here) [compound 3534]” as the substance, how does the “mRNA knockdown … 0.1 nM” value read?
Answer: ++ (70-90% mRNA knockdown)

Question: Which “mRNA knockdown … 0.1 nM” value does the source give for “3546 (AACTACCGCGAGCTGCGCTGGTT; chemistry not given here) [compound 3546]” here?
Answer: + (50-70% mRNA knockdown)

Question: With “3579 (GTGAAGCGGTTTTTCTCCAAGTACTC; chemistry not given here) [compound 3579]” as the substance, how does the “mRNA knockdown … 0.1 nM” value read?
Answer: ++ (70-90% mRNA knockdown)

Question: With “3580 (AGTGAAGCGGTTTTTCTCCAAGTACTC; chemistry not given here) [compound 3580]” as the substance, how does the “mRNA knockdown … 0.1 nM” value read?
Answer: ++ (70-90% mRNA knockdown)

Question: Which “mRNA knockdown … 0.1 nM” value does the source give for “1696 (AACGTGAAGCTCCCTGACGCCTA; chemistry not given here) [compound 1696]” here?
Answer: − (<50% mRNA knockdown)

Question: For “3596 (AACAGGAAGATCCTGCTCATCAG; chemistry not given here) [compound 3596]”, which “mRNA knockdown … 0.1 nM” value is on record?
Answer: + (50-70% mRNA knockdown)

Question: Which “mRNA knockdown … 0.1 nM” value does the source give for “3551 (AAGGCAACTACCGCGAGCTGCGCTGGTT; chemistry not given here) [compound 3551]” here?
Answer: ++ (70-90% mRNA knockdown)

Question: How did the “mRNA knockdown … 0.1 nM” value turn out when “3558 (GCTACGGATGTTGGGATCATTATTA; chemistry not given here) [compound 3558]” was run?
Answer: − (<50% mRNA knockdown)

Question: For “3563 (ATGCGGCTACGGATGTTGGGATCATTATTA; chemistry not given here) [compound 3563]”, which “mRNA knockdown … 0.1 nM” value is on record?
Answer: ++ (70-90% mRNA knockdown)

same assay, conditions: 1 nM siRNA, 24 h post-transfection

Question: With “3573 (TGGTCACCAGCAAGAACGGTGGGATTTACT; chemistry not given here) [compound 3573]” as the substance, how does the “mRNA knockdown of energy and metabolism gene target transcript, 1 nM” value read?
Answer: +++ (>90% mRNA knockdown)

Question: With “3552 (GAAGGCAACTACCGCGAGCTGCGCTGGTT; chemistry not given here) [compound 3552]” as the substance, how does the “mRNA knockdown of energy and metabolism gene target transcript, 1 nM” value read?
Answer: ++ (70-90% mRNA knockdown)

Question: How did the “mRNA knockdown of energy and metabolism gene target transcript, 1 nM” value turn out when “3562 (TGCGGCTACGGATGTTGGGATCATTATTA; chemistry not given here) [compound 3562]” was run?
Answer: +++ (>90% mRNA knockdown)

Question: How did the “mRNA knockdown of energy and metabolism gene target transcript, 1 nM” value turn out when “3572 (GGTCACCAGCAAGAACGGTGGGATTTACT; chemistry not given here) [compound 3572]” was run?
Answer: ++ (70-90% mRNA knockdown)

Question: Which “mRNA knockdown of energy and metabolism gene target transcript, 1 nM” value does the source give for “3561 (GCGGCTACGGATGTTGGGATCATTATTA; chemistry not given here) [compound 3561]” here?
Answer: ++ (70-90% mRNA knockdown)

Question: “1688 (CCAACAGGATCTTCGGCCCCATCTG; chemistry not given here) [compound 1688]” was tested. Which “mRNA knockdown of energy and metabolism gene target transcript, 1 nM” value did it give?
Answer: ++ (70-90% mRNA knockdown)

Question: “3534 (GGGTAGGAGCCCTACACTAGG; chemistry not given here) [compound 3534]” was tested. Which “mRNA knockdown of energy and metabolism gene target transcript, 1 nM” value did it give?
Answer: ++ (70-90% mRNA knockdown)

Question: For “3546 (AACTACCGCGAGCTGCGCTGGTT; chemistry not given here) [compound 3546]”, which “mRNA knockdown of energy and metabolism gene target transcript, 1 nM” value is on record?
Answer: ++ (70-90% mRNA knockdown)

Question: “3579 (GTGAAGCGGTTTTTCTCCAAGTACTC; chemistry not given here) [compound 3579]” was tested. Which “mRNA knockdown of energy and metabolism gene target transcript, 1 nM” value did it give?
Answer: +++ (>90% mRNA knockdown)

Question: Which “mRNA knockdown of energy and metabolism gene target transcript, 1 nM” value does the source give for “3580 (AGTGAAGCGGTTTTTCTCCAAGTACTC; chemistry not given here) [compound 3580]” here?
Answer: ++ (70-90% mRNA knockdown)

Question: Which “mRNA knockdown of energy and metabolism gene target transcript, 1 nM” value does the source give for “1696 (AACGTGAAGCTCCCTGACGCCTA; chemistry not given here) [compound 1696]” here?
Answer: − (<50% mRNA knockdown)

Question: How did the “mRNA knockdown of energy and metabolism gene target transcript, 1 nM” value turn out when “3596 (AACAGGAAGATCCTGCTCATCAG; chemistry not given here) [compound 3596]” was run?
Answer: ++ (70-90% mRNA knockdown)

Question: “3551 (AAGGCAACTACCGCGAGCTGCGCTGGTT; chemistry not given here) [compound 3551]” was tested. Which “mRNA knockdown of energy and metabolism gene target transcript, 1 nM” value did it give?
Answer: − (<50% mRNA knockdown)

Question: Which “mRNA knockdown of energy and metabolism gene target transcript, 1 nM” value does the source give for “3558 (GCTACGGATGTTGGGATCATTATTA; chemistry not given here) [compound 3558]” here?
Answer: ++ (70-90% mRNA knockdown)

Question: “3563 (ATGCGGCTACGGATGTTGGGATCATTATTA; chemistry not given here) [compound 3563]” was tested. Which “mRNA knockdown of energy and metabolism gene target transcript, 1 nM” value did it give?
Answer: +++ (>90% mRNA knockdown)

same assay, conditions: 10 nM siRNA, 24 h post-transfection

Question: For “3546 (AACTACCGCGAGCTGCGCTGGTT; chemistry not given here) [compound 3546]”, which “mRNA knockdown of energy and metabolism gene target transcript, 10 nM” value is on record?
Answer: +++ (>90% mRNA knockdown)

Reference: patent publication US20080145313A1, “Compositions and Methods for the Treatment and Prevention of Neoplastic Disorders” (Genesis Research & Development Corporation Limited, priority 2006, published 2008)
